According to PubChem BioAssay (NCI):
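In this assay, cells in 96-well plates receive the compound at five concentrations for 48 hours. Endpoints are linearly interpolated between the surrounding concentrations. The concentration for 50% growth inhibition is given as GI50. TGI: total growth inhibition.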

Experiments:
Experiment in all cases: growth of human tumour cells (NCI), 48 h
COLO 205 colon = test system: COLO 205 colon
HT29 colon = test system: HT29 colon
RPMI-8226 leukemia = test system: RPMI-8226 leukemia
MDA-MB-435 = test system: MDA-MB-435
SR leukemia = test system: SR leukemia
NCI/ADR-RES ovarian = test system: NCI/ADR-RES ovarian
ACHN renal = test system: ACHN renal
786-0 renal = test system: 786-0 renal

Compound | GI50 (COLO 205 colon) [µM] | TGI (COLO 205 colon) [µM] | GI50 (HT29 colon) [µM] | TGI (HT29 colon) [µM] | GI50 (RPMI-8226 leukemia) [µM] | TGI (RPMI-8226 leukemia) [µM] | GI50 (MDA-MB-435) [µM] | TGI (MDA-MB-435) [µM] | GI50 (SR leukemia) [µM] | TGI (SR leukemia) [µM] | GI50 (NCI/ADR-RES ovarian) [µM] | TGI (NCI/ADR-RES ovarian) [µM] | GI50 (ACHN renal) [µM] | TGI (ACHN renal) [µM] | GI50 (786-0 renal) [µM] | TGI (786-0 renal) [µM]
Clc1cccc(-c2cc(-c3ccc4c(c3)OCCO4)[nH]n2)c1 | 1.42 | 30.1 | 0.952 | 31.6 | 6.38 | 250 | 0.578 | 26.1 | 0.988 | 98.3 | 1.11 | 33.8 | 9.69 | 41 | 23.1 | 64.9
CCOc1cc(/C=C/C(=O)CC(=O)/C=C/c2ccc(OC(=O)CNc3nc4ccc(OC)cc4s3)c(OCC)c2)ccc1OC(=O)CNc1nc2ccc(OC)cc2s1 | 14 | 29.3 | 2.28 | 4.8 | 1.69 | 4.29 | 2.46 | 8.3 | 1.77 | 4.66 | 20 | > 100 | 14.2 | 60.2 | 17 | 85.1
O=c1[nH]c(=O)n(Cc2ccc(C34CC5CC(CC(C5)C3)C4)c(O)c2)cc1F | 17.2 | 37.9 | 14.2 | 37.2 | 5.74 | 23.8 | 3.67 | 15.4 | 5.32 | 19.9 | 13 | 31.4 | 12.5 | 25.2 | 13.8 | 28.5
CN1CCN(CCCOC(=O)c2c3c(n4ccccc24)C(=O)c2ncccc2C3=O)CC1 | < 0.0332 | 1.17 | 0.164 | 2.18 | 0.0653 |  | 0.0142 | 0.162 | < 0.01 | > 100 | < 0.0107 | 12.9 | < 0.01 | 0.0154 | < 0.01 | 0.0407
O=C(Nc1ccc(Nc2ccc3c(c2)C(=O)c2ccccc2C3=O)c2c1C(=O)c1ccccc1C2=O)c1ccccc1 |  | > 100 |  | > 100 |  | > 100 |  | > 100 |  | 17.1 |  | > 100 |  | > 100 |  | > 100
O=c1oc2ccccc2cc1P(=O)(O)O |  | > 100 |  | > 100 |  | > 100 |  | > 100 |  | > 100 |  | > 100 |  | > 100 |  | > 100
C=C(C)[C@@H]1CC[C@]2(C(=O)OC)CC[C@]3(C)[C@H](CC[C@@H]4[C@@](C)(CCc5nn[nH]n5)[C@H](C(=C)C)CC[C@]43C)[C@@H]12 | 19.7 | 47.9 | 20.6 | 73.3 | 4.07 | 29.8 | 17.6 | 44.2 | 11.4 | 49.4 | 20.8 | 73.2 | 15 | 48.1 | 53.4 | > 100
OC(c1ccccc1)c1c(-c2ccccc2)[nH]c(-c2ccccc2)c1C(O)c1ccccc1 (stereo not given) |  | 3.15 |  | 17.5 |  | 5.02 |  | 7.73 |  | 8.25 |  | 8.02 |  | 11.9 |  | 16.1
CCn1c(-c2nonc2N)nc2cnc(Oc3cccc(NC(=O)c4ccc(OCCN5CCOCC5)cc4)c3)cc21 | 3.34 | > 25 | 10.7 | > 25 | 4.28 | > 25 | 7.39 | > 25 | 0.886 | > 25 | 6.1 | > 25 | 2.17 | > 25 | 3.49 | > 25
CN1CCC2(CC1)C(=O)Nc1cc(NC(=O)c3ccc4c(c3)C[C@@H]3C(C)(C)[C@H](O)[C@H](F)C[C@@]3(C)O4)ccc12 | 1.84 | 7.36 | 2.94 | 36.8 | 0.0272 | 10.8 | 1.31 | 13 | 0.0514 | 88.2 | > 100 | > 100 | 8.59 | > 100 | 0.249 | 14.9
C[C@]12CC[C@H]3[C@@H](CCC4=CC(=O)CC[C@@]43C)[C@]1(O)CC[C@]2(O)C(=O)CO |  | > 100 |  | > 100 |  | > 100 |  | > 100 |  | > 100 |  | > 100 |  | > 100 |  | > 100
COc1cc2c(cc1OCCCCCOc1ccc(-c3nc4ccccc4s3)cc1)N=C[C@@H]1CCCN1C2=O | 1.32 | 6.53 | 1.58 | 18 | 1.03 | 4.14 | 10.5 | 69.2 | 0.222 | 1.43 | 2.55 | 15.6 | 2.73 | 27.6 | 1.2 | 3.63
N#Cc1nc2cc(Cl)c(Cl)cc2nc1-c1ccc(Cl)cc1 | > 76.3 | > 100 | > 100 | > 100 | 24.3 | > 100 | > 83.4 | > 100 | 22 | 53.1 | > 42.2 | > 83.4 | 20 | 47.6 | 16.8 | 34.8
